How the values were obtained:
TENC1 = biological target: T1, TENC1 (Homo sapiens, UniProt Q63HR2, P1246L); experiment: Malachite Green assay screening for TENC1 inhibitor (PTPase activity of TENC1); format: biochemical; conditions: TENC1 protein isolated from cells, compared with control; FIG. 8
T1 construct: made in house; host or cells: cells (type not specified)
T1 sequence (Q63HR2 1-1409 P1246L): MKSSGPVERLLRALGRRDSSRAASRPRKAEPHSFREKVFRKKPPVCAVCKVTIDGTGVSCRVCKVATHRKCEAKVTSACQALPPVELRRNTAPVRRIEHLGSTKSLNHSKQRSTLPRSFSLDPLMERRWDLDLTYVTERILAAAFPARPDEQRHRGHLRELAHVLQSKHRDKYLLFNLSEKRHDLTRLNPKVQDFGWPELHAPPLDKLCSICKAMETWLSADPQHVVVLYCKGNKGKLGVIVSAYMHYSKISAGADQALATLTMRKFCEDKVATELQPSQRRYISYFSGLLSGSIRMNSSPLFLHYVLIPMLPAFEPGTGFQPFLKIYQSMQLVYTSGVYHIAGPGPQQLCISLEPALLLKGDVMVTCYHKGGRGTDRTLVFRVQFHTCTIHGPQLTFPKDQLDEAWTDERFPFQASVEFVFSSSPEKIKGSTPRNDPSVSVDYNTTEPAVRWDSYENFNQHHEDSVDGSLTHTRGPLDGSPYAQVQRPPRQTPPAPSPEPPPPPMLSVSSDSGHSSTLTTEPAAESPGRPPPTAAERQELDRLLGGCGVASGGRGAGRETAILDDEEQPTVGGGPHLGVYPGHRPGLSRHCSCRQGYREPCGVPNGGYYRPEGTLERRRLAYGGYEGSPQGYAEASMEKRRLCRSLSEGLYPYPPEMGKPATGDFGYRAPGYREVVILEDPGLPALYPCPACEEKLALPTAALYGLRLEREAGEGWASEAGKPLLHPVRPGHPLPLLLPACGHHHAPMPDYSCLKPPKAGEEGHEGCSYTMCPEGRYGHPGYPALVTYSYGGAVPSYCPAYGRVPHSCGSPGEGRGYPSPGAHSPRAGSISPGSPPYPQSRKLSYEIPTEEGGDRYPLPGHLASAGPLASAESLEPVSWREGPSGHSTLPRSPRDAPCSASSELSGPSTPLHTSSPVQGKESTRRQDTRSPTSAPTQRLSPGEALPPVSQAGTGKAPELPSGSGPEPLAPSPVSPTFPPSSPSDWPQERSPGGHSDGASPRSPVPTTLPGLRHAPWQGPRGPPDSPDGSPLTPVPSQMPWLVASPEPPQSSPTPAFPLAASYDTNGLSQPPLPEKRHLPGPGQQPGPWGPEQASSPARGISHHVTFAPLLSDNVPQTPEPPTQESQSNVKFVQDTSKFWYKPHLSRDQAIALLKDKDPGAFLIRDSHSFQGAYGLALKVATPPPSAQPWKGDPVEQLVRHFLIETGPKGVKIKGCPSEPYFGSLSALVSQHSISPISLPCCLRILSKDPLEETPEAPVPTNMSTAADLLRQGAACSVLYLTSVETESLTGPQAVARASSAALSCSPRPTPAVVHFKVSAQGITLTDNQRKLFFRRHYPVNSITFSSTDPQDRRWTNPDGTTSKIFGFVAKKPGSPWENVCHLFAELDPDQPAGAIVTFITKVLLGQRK
Experimental: According to the above results, it was confirmed that TENC1 overexpressed in a high glucose environment known as a leading cause of diabetic nephropathy inhibits phosphorylation of nephrin caused by dephosphorylation, and induces hypertrophy of the podocyte cell line. For this reason, to inhibit the hypertrophy of the podocyte cell line, screening was performed through a Malachite Green assay for finding a TENC1 inhibitor.
TENC1 protein isolated from the cells and each of the natural product library candidate compounds were put together for a predetermined time, and the PTPase activity of TENC1 was measured. […] Here, as a positive control, a PTPase inhibitor, sodium vanadate (Na3VO4; NAV) was used. Since there were almost no molecules left in the test tube, the method has a higher probability of discovering a direct regulator, compared with a cellular-level screening method.

db/db mouse = experiment: Diabetic nephropathy animal model, db/db mouse (fasting serum glucose, kidney weight, proteinuria); format: in vivo; conditions: 300 mg/kg orally daily for 2 weeks
Experimental: (§1) An effect of DHTS, which is the representative material of the TENC1 inhibitors found through the screening described in Example 5, was identified using a diabetic nephropathy animal model. To this end, as a diabetic nephropathy animal model, a type II diabetic model, that is, a db/db mouse was used, and as a control, a db/m mouse was used. 10 week-old male db/m and db/db mice were divided into three groups including a group in which a vehicle was administered to a db/m mouse, a group in which a vehicle was administered to a db/db mouse, and a group in which 300 mg/kg of DHTS was administered to a db/db mouse for experiments, and the vehicle or drug was orally administered daily for 2 weeks according to each condition. As the vehicle, 1% carboxymethyl cellulose was used.
First, after the experiment described above, blood was taken from a mouse to measure a fasting serum glucose level. As a result, referring to FIG. 9, it was confirmed that the fasting serum glucose level was not decreased by the administration of DHTS for two weeks.
Therefore, it was confirmed that DHTS can improve the renal hypertrophy.

nephrin = experiment: Nephrin phosphorylation in kidney tissue of db/db mouse (immunoprecipitation); format: in vivo; conditions: 300 mg/kg orally daily for 2 weeks, FIG. 12
Experimental: as §1
(§2) Further, to investigate whether the above result is obtained by inhibiting TENC1-induced nephrin dephosphorylation and increased mTORC1 signaling, immunoprecipitation and western blotting were performed with a kidney tissue sample extracted from a mouse.

mTORC1 signaling = mTORC1 signaling (S6K phosphorylation) in kidney tissue of db/db mouse (western blotting); format: in vivo; conditions: 300 mg/kg orally daily for 2 weeks, FIG. 13
Experimental: as §1, §2

differentiated podocyte = experiment: Filtration function of differentiated podocyte under high glucose (protein quantification); format: cell-based; conditions: high glucose condition of 30 mmol/L vs normal glucose 5 mmol/L; FIG. 11B

## Cc1cccc2c3c(ccc12)C1=C(C(=O)C3=O)[C@@H](C)CO1 [DHTS, (1R)-1,6-dimethyl-1,2-dihydronaphtho[1,2-g][1]benzofuran-10,11-dione]
TENC1
  inhibitory effect on the PTPase activity of TENC1: inhibitory effect
db/db mouse; FIG. 9
  fasting serum glucose level: not decreased
db/db mouse; compared with vehicle db/db mouse, FIG. 11A
  proteinuria (albumin ELISA): significantly reduced
db/db mouse; vs vehicle db/db and db/m, FIG. 10
  kidney weight (renal hypertrophy; ratio of kidney weight to body weight): such an increase was not shown
nephrin
  nephrin phosphorylation in kidney tissue: recovered
mTORC1 signaling
  S6K phosphorylation (pS6K) in kidney tissue: effectively inhibited
Differentiated podocyte
  filtration function of the podocyte: improved to a level similar to the result obtained under a the normal glucose condition
